Test results: PubChem BioAssay AID330 (DTP/NCI, 2004)
“And” between values parts separate entries of the source, which are not always exact repeats. Equal entries are not always repeated. Inconclusive results and toxic doses are left out. Rule for the calls: active = survival T/C of 150% or more; inactive = T/C below 125% in these data.

Tested on: P388 leukemia ip, CD2F1 mice, survival T/C
Test: NCI In Vivo Anticancer Drug Screen. Data for tumor model P388 Leukemia (intraperitoneal) in CD2F1 (CDF1) mice
Details: endpoint: median survival time, higher = longer survival
In short: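 Mice carrying the transplanted tumor received test compound or vehicle. Survival was recorded in each group, and the value is the treated-group measurement divided by that of the vehicle-treated control group.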

[1] = dose: 100.0 mg/kg/injection, schedule: Q01DX009 (ip), vehicle: saline with Tween-80
[2] = dose: 100.0 mg/kg/injection, schedule: Q04DX003 (ip), vehicle: saline with Tween-80
[3] = dose: 200.0 mg/kg/injection, schedule: Q01DX009 (ip), vehicle: saline with Tween-80
[4] = dose: 200.0 mg/kg/injection, schedule: Q04DX003 (ip), vehicle: saline with Tween-80
[5] = dose: 400.0 mg/kg/injection, schedule: Q01DX009 (ip), vehicle: saline with Tween-80
[6] = dose: 400.0 mg/kg/injection, schedule: Q04DX003 (ip), vehicle: saline with Tween-80
[7] = dose: 50.0 mg/kg/injection, schedule: Q01DX009 (ip), vehicle: saline
[8] = dose: 100.0 mg/kg/injection, schedule: Q01DX009 (ip), vehicle: saline
[9] = dose: 50.0 mg/kg/injection, schedule: Q01DX009 (ip), vehicle: Klucel (hydroxypropylcellulose) (HPC)
[10] = dose: 100.0 mg/kg/injection, schedule: Q01DX009 (ip), vehicle: Klucel (hydroxypropylcellulose) (HPC)
[11] = dose: 200.0 mg/kg/injection, schedule: Q01DX009 (ip), vehicle: Klucel (hydroxypropylcellulose) (HPC)
[12] = dose: 12.5 mg/kg/injection, schedule: Q01DX009 (ip), vehicle: Klucel (hydroxypropylcellulose) (HPC)
[13] = dose: 25.0 mg/kg/injection, schedule: Q01DX009 (ip), vehicle: Klucel (hydroxypropylcellulose) (HPC)

Measured: T/C

Cc1c(C)c2c(c(C)c1O)CCC(C)(CCCC(C)CCCC(C)CCCC(C)C)O2 (stereo not given)
inactive: dose: 42.5 mg/kg/injection, schedule: Q01DX001 (ip), vehicle: olive oil, sesame oil, peanut oil 104 % of control | dose: 50.0 mg/kg/injection, schedule: Q01DX009 (ip), vehicle: olive oil, sesame oil, peanut oil 106 % of control | dose: 85.0 mg/kg/injection, schedule: Q01DX001 (ip), vehicle: olive oil, sesame oil, peanut oil 98 % of control | dose: 100.0 mg/kg/injection, schedule: Q01DX009 (ip), vehicle: olive oil, sesame oil, peanut oil 100 % of control | [1] 100 % of control | [2] 100 % of control | dose: 170.0 mg/kg/injection, schedule: Q01DX001 (ip), vehicle: olive oil, sesame oil, peanut oil 100 % of control and 97 % of control | dose: 200.0 mg/kg/injection, schedule: Q01DX009 (ip), vehicle: olive oil, sesame oil, peanut oil 103 % of control | [3] 104 % of control | [4] 100 % of control | dose: 340.0 mg/kg/injection, schedule: Q01DX001 (ip), vehicle: olive oil, sesame oil, peanut oil 91 % of control | dose: 400.0 mg/kg/injection, schedule: Q01DX009 (ip), vehicle: Klucel (hydroxypropylcellulose) (HPC) 102 % of control | [5] 100 % of control | [6] 87 % of control | dose: 800.0 mg/kg/injection, schedule: Q01DX009 (ip), vehicle: Klucel (hydroxypropylcellulose) (HPC) 101 % of control | dose: 1200.0 mg/kg/injection, schedule: Q01DX009 (ip), vehicle: Klucel (hydroxypropylcellulose) (HPC) 106 % of control | dose: 1600.0 mg/kg/injection, schedule: Q01DX009 (ip), vehicle: Klucel (hydroxypropylcellulose) (HPC) 113 % of control | dose: 42.5 IU/animal/injection, schedule: Q01DX001 (ip), vehicle: olive oil, sesame oil, peanut oil 102 % of control and 110 % of control | dose: 85.0 IU/animal/injection, schedule: Q01DX001 (ip), vehicle: olive oil, sesame oil, peanut oil 102 % of control and 105 % of control and 107 % of control | dose: 170.0 IU/animal/injection, schedule: Q01DX001 (ip), vehicle: olive oil, sesame oil, peanut oil 101 % of control and 113 % of control (2×) | dose: 340.0 IU/animal/injection, schedule: Q01DX001 (ip), vehicle: olive oil, sesame oil, peanut oil 102 % of control and 104 % of control

CCSc1ncnc2c1ncn2C1OC(CO)C(O)C1O (stereo not given)
inactive: [2] 104 % of control | [4] 109 % of control

CC1OC(=O)C(C)C1=O (stereo not given)
inactive: dose: 50.0 mg/kg/injection, schedule: Q01DX005 (ip), vehicle: saline 104 % of control | dose: 100.0 mg/kg/injection, schedule: Q01DX005 (ip), vehicle: saline 92 % of control | dose: 200.0 mg/kg/injection, schedule: Q01DX005 (ip), vehicle: saline 113 % of control

O=C(N/N=C/c1cccc(O)c1O)N/N=C/c1cccc(O)c1O
inactive: dose: 25.0 mg/kg/injection, schedule: Q01DX009 (ip), vehicle: distilled water + Tween-80 104 % of control and 109 % of control | dose: 50.0 mg/kg/injection, schedule: Q01DX009 (ip), vehicle: distilled water + Tween-80 109 % of control (2×) and 116 % of control | dose: 100.0 mg/kg/injection, schedule: Q01DX009 (ip), vehicle: distilled water + Tween-80 118 % of control and 119 % of control | dose: 200.0 mg/kg/injection, schedule: Q01DX009 (ip), vehicle: distilled water + Tween-80 118 % of control and 95 % of control | dose: 400.0 mg/kg/injection, schedule: Q01DX009 (ip), vehicle: distilled water + Tween-80 91 % of control

COCCCN(Cc1cc(OC)c(OC)c(OC)c1)C(=S)Nc1cccc(SC)c1
inactive: [7] 101 % of control | [8] 100 % of control | dose: 200.0 mg/kg/injection, schedule: Q01DX009 (ip), vehicle: saline 99 % of control

COc1cc(N)c2c(c1N)C(=O)c1ccccc1C2=O
inactive: dose: 50.0 mg/kg/injection, schedule: Q01DX005 (ip), vehicle: Klucel (hydroxypropylcellulose) (HPC) 98 % of control | dose: 100.0 mg/kg/injection, schedule: Q01DX005 (ip), vehicle: Klucel (hydroxypropylcellulose) (HPC) 101 % of control | dose: 200.0 mg/kg/injection, schedule: Q01DX005 (ip), vehicle: Klucel (hydroxypropylcellulose) (HPC) 97 % of control

Nc1nc2c(nnn2C2OC(CO)C(O)C2O)c(=O)[nH]1 (stereo not given)
inactive: dose: 50.0 mg/kg/injection, schedule: Q01DX005 (ip), vehicle: saline with Tween-80 113 % of control | dose: 100.0 mg/kg/injection, schedule: Q01DX005 (ip), vehicle: saline with Tween-80 101 % of control

O=C1OCc2cnccc21
inactive: dose: 8.75 mg/kg/injection, schedule: Q01DX005 (ip), vehicle: Klucel (hydroxypropylcellulose) (HPC) 98 % of control | dose: 17.5 mg/kg/injection, schedule: Q01DX005 (ip), vehicle: Klucel (hydroxypropylcellulose) (HPC) 100 % of control | dose: 35.0 mg/kg/injection, schedule: Q01DX005 (ip), vehicle: Klucel (hydroxypropylcellulose) (HPC) 97 % of control

Cc1cccnc1Nc1ncccc1C
inactive: dose: 60.0 mg/kg/injection, schedule: Q01DX005 (ip), vehicle: saline 102 % of control | dose: 120.0 mg/kg/injection, schedule: Q01DX005 (ip), vehicle: saline 102 % of control | dose: 240.0 mg/kg/injection, schedule: Q01DX005 (ip), vehicle: saline 102 % of control

N#CC1C(=O)NC(=O)C(C#N)C1c1cccc(O)c1 (stereo not given)
inactive: [9] 96 % of control | [10] 101 % of control | [11] 97 % of control

N=C(N)SCc1cccc(-c2nc3ccccc3c(=O)o2)c1
inactive: [7] 102 % of control | [8] 113 % of control

COc1ccc2c(c1)c1ccnc3ccc(=O)n2c31
inactive: dose: 0.83 mg/kg/injection, schedule: Q01DX009 (ip), vehicle: saline with Tween-80 98 % of control | dose: 1.65 mg/kg/injection, schedule: Q01DX009 (ip), vehicle: saline with Tween-80 109 % of control | dose: 3.29 mg/kg/injection, schedule: Q01DX009 (ip), vehicle: saline with Tween-80 109 % of control | dose: 6.58 mg/kg/injection, schedule: Q01DX009 (ip), vehicle: saline with Tween-80 109 % of control

CCOC(=O)NC(C#N)=C(Cl)Cl
inactive: dose: 6.25 mg/kg/injection, schedule: Q01DX009 (ip), vehicle: Klucel (hydroxypropylcellulose) (HPC) 100 % of control | [12] 100 % of control | [13] 101 % of control

O=c1c2cc3c(=O)n(CC[P+](c4ccccc4)(c4ccccc4)c4ccccc4)c(=O)c3cc2c(=O)n1CC[P+](c1ccccc1)(c1ccccc1)c1ccccc1
inactive: dose: 0.78 mg/kg/injection, schedule: Q01DX009 (ip), vehicle: water 99 % of control | dose: 1.56 mg/kg/injection, schedule: Q01DX009 (ip), vehicle: water 97 % of control | dose: 3.13 mg/kg/injection, schedule: Q01DX009 (ip), vehicle: water 93 % of control

CCCCCCCCCCCCCCCCOc1ccccc1CNc1cc(Cl)ccc1Cl
inactive: [1] 100 % of control | [2] 100 % of control | [3] 91 % of control | [4] 100 % of control | [5] 100 % of control | [6] 86 % of control

CCOC(=O)NCCF
inactive: dose: 0.78 mg/kg/injection, schedule: Q01DX009 (ip), vehicle: saline 96 % of control | dose: 1.56 mg/kg/injection, schedule: Q01DX009 (ip), vehicle: saline 101 % of control | dose: 3.12 mg/kg/injection, schedule: Q01DX009 (ip), vehicle: saline 101 % of control

CC(COCNc1ccccc1)C(=O)O (stereo not given)
inactive: [9] 103 % of control | [10] 103 % of control | [11] 100 % of control

CCCCCCCCCCCCCCCCCCOCC(O)CN(CCO)CCO (stereo not given)
inactive: [12] 91 % of control | [13] 91 % of control | [9] 96 % of control
